We go through 5 compounds from patent EP0452680A1 (priority 1990, dated 1991).

The subject of one series is Herpesviren. Put plainly: General statement on antiviral activity (no specific test named). The following applies: qualitative statement in the description.
Series [1] in a line: in vitro. Conditions: human, hela cells.
Series [2] in a line: in vitro. The following applies: monkey, vero cells.
Series [3] in a line: in vitro. Conditions: bovine, mdbk cells.
Series [4] can be described thus: in vitro. The following applies: monkey, vero cells. The source holds these as a separate data set.

Consider `CC(C)OCC(COC(C)C)OCn1cnc2nc(N)ncc21` [Beispiel 6.7., 2-Amino-7-[1,3-bis(isopropoxy)-2-propoxymethyl]purin], for which the “antivirale Aktivität gegen Herpesviren” value in the series on Herpesviren is “besonders hohen antiviralen Aktivität”. Moreover, the MNTC in the series “in vitro [1]”, in the series “in vitro [2]”, in the series “in vitro [3]” and in the series “in vitro [4]” was greater than 400 µg/mL in each case.

As for `CC(C)OCC(CO)OCn1cnc2nc(N)ncc21` (centres unmarked) [Beispiel 6.10., 2-Amino-7-(1-hydroxy-3-isopropoxy-2-propoxymethyl)-purin], the “antivirale Aktivität gegen Herpesviren” value in the series on Herpesviren is “besonders hohen antiviralen Aktivität”. In addition, the MNTC in the series “in vitro [1]”, in “in vitro [2]”, in the series “in vitro [3]” and in “in vitro [4]” was greater than 400 µg/mL throughout.

As to `Nc1ncc2c(ncn2COC(CO)CO)n1` [Beispiel 6.12., 2-Amino-7-(1,3-dihydroxy-2-propoxymethyl)-purin], the “antivirale Aktivität gegen Herpesviren” value with Herpesviren is listed as “besonders hohen antiviralen Aktivität”. The MNTC in “in vitro [1]” is 44.4 µg/mL; in the series “in vitro [2]”, 133 µg/mL; in “in vitro [3]”, greater than 400 µg/mL; in “in vitro [4]”, 133 µg/mL.

As for `Nc1nc2ncn(COC(CO)CO)c2c(=O)[nH]1` [reference compound], the MNTC in “in vitro [1]”, in “in vitro [2]”, in the series “in vitro [3]” and in the series “in vitro [4]” was greater than 400 µg/mL each time.

As to `Nc1nc(O)c2ncn(COC(CO)CO)c2n1` [reference compound], the MNTC was greater than 400 µg/mL in “in vitro [1]”, greater than 400 µg/mL in “in vitro [2]”, greater than 133 µg/mL in “in vitro [3]” and greater than 400 µg/mL in the series “in vitro [4]”.
